For ten compounds, IC50 results are on record in US7157430B2, “(Substituted)acyl dipeptidyl inhibitors of the ICE/CED-3 family of cysteine proteases” (Idun Pharmaceuticals, Inc., priority 1998, dated 2007).

Common to all, as to assay type: biochemical
One experiment addresses T1, MCH-3 (Homo sapiens, UniProt P55210).
T1 sequence (P55210 24-198 limits assumed): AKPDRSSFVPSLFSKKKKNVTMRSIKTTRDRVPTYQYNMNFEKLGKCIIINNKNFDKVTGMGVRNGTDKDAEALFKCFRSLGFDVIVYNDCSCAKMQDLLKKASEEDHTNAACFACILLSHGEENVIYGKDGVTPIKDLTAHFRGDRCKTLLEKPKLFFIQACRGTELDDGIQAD
T1 sequence (P55210 207-303 limits assumed): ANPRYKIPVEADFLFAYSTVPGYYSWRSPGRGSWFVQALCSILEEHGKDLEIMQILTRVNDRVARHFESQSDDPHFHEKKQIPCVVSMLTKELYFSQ
Nature of the experiment: Fluorescence enzyme assay, IC50 determination, Mch3. The conditions noted are these: Table 3; method of Preparation 3A; read-out: MCH3 I50. As to the method:
(§1) Fluorescence enzyme assays detecting the activity of the compounds of Formula 1 utilizing the recombinant ICE and CPP32 enzymes are performed essentially according to Thornberry et al. (Nature, 356:768:774 (1992)) and Nicholson et al. (Nature, 376:37–43 (1995)) respectively, (herein incorporated by reference) in 96 well microtiter plates. The substrate is Acetyl-Tyr-Val-Ala-Asp-amino-4-methylcoumarin (AMC) for the ICE assay and Acetyl-Asp-Glu-Val-Asp-amino-4-methylcoumarin for the CPP32, Mch2, Mch3 and Mch5 assays. Enzyme reactions are run in ICE buffer (25 mM HEPES, 1 mM EDTA, 0.1% CHAPS, 10% sucrose, pH 7.5) containing 2 mM DTT at room temperature in duplicate.
(§2) The enzyme and the compound of Formula I to be assayed are allowed to preincubate in the microtitre plate wells for 30 minutes at room temperature prior to the addition of substrate to initiate the reaction. Fluorescent AMC product formation is monitored for one hour at room temperature by measuring the fluorescence emission at 460 nm using an excitation wavelength of 360 nm. The fluorescence change in duplicate (control) wells are averaged and the mean values are plotted as a function of inhibitor concentration to determine the inhibitor concentration producing 50% inhibition (IC50). The results of this assay are set forth below in Table 1 and in Table 3 (for Table 3, see Examples 11 through 52).
(§3) The reference compound for this assay was Cbz-ValAlaAsp-H and the values are denoted in Table 1 as “Reference”.

Another experiment deals with T2, CPP32 (Homo sapiens, UniProt P42574).
T2 sequence (P42574 29-175 limits assumed): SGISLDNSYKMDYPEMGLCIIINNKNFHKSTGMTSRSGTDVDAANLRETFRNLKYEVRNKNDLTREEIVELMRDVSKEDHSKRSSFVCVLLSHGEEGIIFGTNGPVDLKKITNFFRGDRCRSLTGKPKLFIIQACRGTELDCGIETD
T2 sequence (P42574 176-277 limits assumed): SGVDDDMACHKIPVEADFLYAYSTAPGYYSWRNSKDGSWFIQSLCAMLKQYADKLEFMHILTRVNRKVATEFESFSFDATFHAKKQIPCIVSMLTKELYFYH
Nature of the experiment: Fluorescence enzyme assay, IC50 determination, CPP32. As to conditions: Table 3; method of Preparation 3A; read-out: CPP32 I50. As to the method:
as §1, §2, §3

The next experiment concerns the target MCH-5 (Homo sapiens, UniProt Q14790). The experiment in a line: Fluorescence enzyme assay, IC50 determination, Mch5. The conditions noted are these: Table 3; method of Preparation 3A; read-out: MCH5 I50. Here is the method: as §1, §2, §3
The target in another experiment is T3, MCH-2 (Homo sapiens, UniProt P55212).
T3 sequence (P55212 24-179 limits assumed): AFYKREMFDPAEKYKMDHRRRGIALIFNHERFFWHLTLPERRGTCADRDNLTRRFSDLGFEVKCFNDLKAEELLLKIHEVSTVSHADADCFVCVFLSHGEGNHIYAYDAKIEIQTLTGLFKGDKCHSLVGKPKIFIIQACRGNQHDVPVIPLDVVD
T3 sequence (P55212 194-293 limits assumed): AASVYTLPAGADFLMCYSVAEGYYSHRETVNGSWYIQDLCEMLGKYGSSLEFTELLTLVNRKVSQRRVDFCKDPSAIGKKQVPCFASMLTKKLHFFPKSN
Nature of the experiment: Fluorescence enzyme assay, IC50 determination, Mch2. As to conditions: Table 3; method of Preparation 3A; read-out: MCH2 I50. As to the method: as §1, §2, §3

The next experiment has as its target T4, mICE (Mus musculus, UniProt P29452).
T4 sequence (P29452 123-296 limits assumed): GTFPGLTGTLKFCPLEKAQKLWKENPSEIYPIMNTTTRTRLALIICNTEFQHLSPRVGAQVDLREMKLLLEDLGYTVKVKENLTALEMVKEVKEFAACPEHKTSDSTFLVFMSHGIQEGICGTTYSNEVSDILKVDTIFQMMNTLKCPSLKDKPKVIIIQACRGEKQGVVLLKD
T4 sequence (P29452 315-402 limits assumed): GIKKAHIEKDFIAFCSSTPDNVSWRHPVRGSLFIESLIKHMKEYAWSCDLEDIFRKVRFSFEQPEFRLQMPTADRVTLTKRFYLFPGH
The experiment in a line: Fluorescence enzyme assay, IC50 determination, ICE. The conditions noted are these: Table 3; method of Preparation 3A; read-out: mICE I50. As to the method: as §1, §2, §3

Chain of MCH-5 (Q14790 217-374 limits assumed, species assumed): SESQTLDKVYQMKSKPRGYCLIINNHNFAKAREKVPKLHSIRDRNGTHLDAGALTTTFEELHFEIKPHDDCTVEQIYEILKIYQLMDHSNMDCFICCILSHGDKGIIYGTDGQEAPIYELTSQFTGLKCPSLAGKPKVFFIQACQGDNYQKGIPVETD
Chain of MCH-5 (Q14790 385-479 limits assumed, species assumed): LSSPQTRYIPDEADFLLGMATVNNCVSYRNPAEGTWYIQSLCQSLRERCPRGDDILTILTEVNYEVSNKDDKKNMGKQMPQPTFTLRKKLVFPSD

Turning to `CC(C)C[C@H](NC(=O)CSc1ccc2ccccc2c1)C(=O)N[C@H](C=O)CC(=O)O` [Example 17], the IC50 on MCH-3 stood at 2.52 µM; at CPP32 it was 0.269 µM; at MCH-5, 11 µM; on MCH-2, 3.16 µM; at mICE it was 0.792 µM.
In the case of `CC(C)C[C@H](NC(=O)CCCc1ccc2ccccc2c1)C(=O)N[C@H](C=O)CC(=O)O` [Example 18], the IC50 on MCH-3 is 18.2 µM; at CPP32, 2.76 µM; at MCH-5, greater than 50 µM; at MCH-2, 14.5 µM; on mICE it was 1.8 µM.
On the same counts, the results for `CC(C)C[C@H](NC(=O)CCC(=O)c1cccc2ccccc12)C(=O)N[C@H](C=O)CC(=O)O` [Example 19] are 11.3 µM, 0.967 µM, 11.2 µM, 11.8 µM and 0.408 µM.
Turning to `CC(C)C[C@H](NC(=O)C(C)CC(=O)c1cccc2ccccc12)C(=O)N[C@H](C=O)CC(=O)O` (some centres unmarked) [Example 20], the IC50 at MCH-3 is 29.8 µM; on CPP32 it was 9.88 µM; on MCH-5 it was 3.25 µM; on MCH-2, 24.9 µM; on mICE, 4.55 µM.
For the compound `CC(C)C[C@H](NC(=O)CCC(=O)c1ccc2ccccc2c1)C(=O)N[C@H](C=O)CC(=O)O` [Example 21], the IC50 at MCH-3 is 7.43 µM; at CPP32 it was 1.42 µM; on MCH-5 it was 5.23 µM; on MCH-2, 10.3 µM; on mICE, 0.543 µM.
The corresponding values for `CC(C)C[C@H](NC(=O)CCOc1ccc2ccccc2c1)C(=O)N[C@H](C=O)CC(=O)O` [Example 23] are 9.65 µM, 0.91 µM, 15.2 µM, 5.9 µM and 1.32 µM.
On to `CC(C)C[C@H](NC(=O)CCSc1cccc2ccccc12)C(=O)N[C@H](C=O)CC(=O)O` [Example 24], for which the IC50 is 3.6 µM on MCH-3; 0.412 µM on CPP32; 16.3 µM at MCH-5; 2.72 µM at MCH-2; 0.563 µM at mICE.
Take `CC(C)C[C@H](NC(=O)CCSc1ccc2ccccc2c1)C(=O)N[C@H](C=O)CC(=O)O` [Example 25]: the IC50 on MCH-3 worked out at 5.89 µM; on CPP32 it was 0.837 µM; on MCH-5, 15 µM; at MCH-2, 1.62 µM; on mICE, 0.611 µM.
On the same counts, the results for `Cc1ccc2ccccc2c1OCC(=O)N[C@@H](CC(C)C)C(=O)N[C@H](C=O)CC(=O)O` [Example 26] are 4.16 µM, 0.375 µM, 4.14 µM, 32.4 µM and 0.843 µM.
Take `COc1ccc(OCC(=O)N[C@@H](CC(C)C)C(=O)N[C@H](C=O)CC(=O)O)c2ccccc12` [Example 27]: the IC50 was 4.08 µM at MCH-3; 0.263 µM at CPP32; 1.45 µM on MCH-5; 22.6 µM on MCH-2; 0.831 µM at mICE.
